Literature values, collected in patent publication US7776915B2, “Topical formulations and methods of use” (Tracie Martyn International, LLC, priority 2005, dated 2010).
pIC50: −log10 of the molar value.

Legend:
neurites in the brain = details: similar to the stimulating effect of nerve growth factor
[1] = dosages above 500 mg/kg body weight
ACE = ACE (Homo sapiens, UniProt P12821); details: read-out: ACE inhibitor IC50
Sequence of ACE (P12821 30-1306, species assumed): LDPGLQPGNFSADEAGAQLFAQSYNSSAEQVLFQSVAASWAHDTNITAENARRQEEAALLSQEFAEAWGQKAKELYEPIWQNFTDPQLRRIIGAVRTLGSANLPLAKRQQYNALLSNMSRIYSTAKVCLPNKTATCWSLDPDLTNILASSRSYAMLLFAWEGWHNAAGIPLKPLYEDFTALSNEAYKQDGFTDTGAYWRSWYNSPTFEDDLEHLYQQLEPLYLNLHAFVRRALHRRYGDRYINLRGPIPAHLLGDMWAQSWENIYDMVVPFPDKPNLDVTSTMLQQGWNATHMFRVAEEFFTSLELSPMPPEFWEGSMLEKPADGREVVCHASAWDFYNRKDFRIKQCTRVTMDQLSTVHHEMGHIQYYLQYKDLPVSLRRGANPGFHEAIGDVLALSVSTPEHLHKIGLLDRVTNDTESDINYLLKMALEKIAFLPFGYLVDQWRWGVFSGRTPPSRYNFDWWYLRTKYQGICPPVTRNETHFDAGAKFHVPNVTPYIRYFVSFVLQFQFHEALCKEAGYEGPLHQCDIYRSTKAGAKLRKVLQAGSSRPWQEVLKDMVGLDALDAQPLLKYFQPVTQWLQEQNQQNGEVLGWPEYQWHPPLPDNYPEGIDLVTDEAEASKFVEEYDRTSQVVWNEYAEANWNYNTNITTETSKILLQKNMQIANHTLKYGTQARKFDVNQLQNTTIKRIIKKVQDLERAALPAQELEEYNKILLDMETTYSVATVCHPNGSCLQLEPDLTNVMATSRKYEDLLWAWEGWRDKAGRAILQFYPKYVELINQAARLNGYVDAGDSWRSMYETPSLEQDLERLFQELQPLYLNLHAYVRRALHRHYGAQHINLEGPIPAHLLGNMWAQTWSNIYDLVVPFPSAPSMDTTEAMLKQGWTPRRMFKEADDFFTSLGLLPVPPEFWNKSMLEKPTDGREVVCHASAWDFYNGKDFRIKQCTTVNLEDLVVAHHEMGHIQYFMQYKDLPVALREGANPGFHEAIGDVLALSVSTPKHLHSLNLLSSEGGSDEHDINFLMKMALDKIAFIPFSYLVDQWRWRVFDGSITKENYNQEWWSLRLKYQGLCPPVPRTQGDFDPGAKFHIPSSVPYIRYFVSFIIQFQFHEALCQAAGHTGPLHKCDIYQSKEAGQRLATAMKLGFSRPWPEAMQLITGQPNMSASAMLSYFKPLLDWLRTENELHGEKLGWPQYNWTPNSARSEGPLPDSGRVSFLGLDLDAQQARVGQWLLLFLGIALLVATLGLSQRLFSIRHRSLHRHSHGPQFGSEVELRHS

## CC(=O)O[C@H](CC(=O)[O-])C[N+](C)(C)C.NC(N)=NCCC[C@H](N)C(=O)O [Acetyl-1-carnitine-arginate]
Neurites in the brain
  stimulation of the growth of neurites: ≤ 19.5%

## NCCC(=O)N[C@@H](Cc1cnc[nH]1)C(=O)O [Carnosine, β-alanyl-L-histidine]
[1]
  safety in animal studies: safe

## N[C@@H](CCC(=O)N[C@@H](CS)C(=O)NCC(=O)O)C(=O)O [Glutathione]
ACE
  pIC50: 4.98

## Cc1ncc(CO)c(CN)c1O [Pyridoxamine, 4-aminomethyl-5-hydroxy-6-methyl-3-pyridinemethanol]
other
  water solubility: water-soluble
